# Measured values taken from PubChem BioAssay (NCI).
#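 Dose response: 5 concentrations. Exposure: 48 h. Format: 96-well plates. Endpoint: linear interpolation; highest concentration if not reached. TGI: total growth inhibition.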
# Key:
# Test in all cases: DTP human tumour cell line panel, 48 h
# CCRF-CEM leukemia = tested on: CCRF-CEM leukemia
# SK-MEL-28 melanoma = tested on: SK-MEL-28 melanoma
# SW-620 colon = tested on: SW-620 colon
# SF-539 CNS = tested on: SF-539 CNS
# NCI-H460 lung = tested on: NCI-H460 lung
# IGROV1 ovarian = tested on: IGROV1 ovarian
# SK-MEL-5 melanoma = tested on: SK-MEL-5 melanoma
# SNB-19 CNS = tested on: SNB-19 CNS
# RXF 393 renal = tested on: RXF 393 renal
# A498 renal = tested on: A498 renal
# BT-549 breast = tested on: BT-549 breast
compound,measurement,setting,value
COc1ccc2nc(-c3ccc(OCc4ccccc4)cc3)ccc2c1,TGI,CCRF-CEM leukemia,> 100 µM
same,TGI,SK-MEL-28 melanoma,> 100 µM
same,TGI,SW-620 colon,> 100 µM
same,TGI,SF-539 CNS,> 100 µM
same,TGI,NCI-H460 lung,> 100 µM
same,TGI,IGROV1 ovarian,> 100 µM
same,TGI,SK-MEL-5 melanoma,> 100 µM
same,TGI,SNB-19 CNS,> 100 µM
same,TGI,RXF 393 renal,> 100 µM
Cc1cc2c(cc1C)[n+](=O)c(C(=O)C/C(=N/NC(=O)c1ccccc1O)C(=O)Nc1ccccc1C(C)C)c(C)n2[O-],TGI,CCRF-CEM leukemia,94.1 µM
same,TGI,SK-MEL-28 melanoma,> 100 µM
same,TGI,SW-620 colon,> 100 µM
same,TGI,SF-539 CNS,> 100 µM
same,TGI,NCI-H460 lung,> 100 µM
same,TGI,A498 renal,> 100 µM
same,TGI,IGROV1 ovarian,> 100 µM
same,TGI,SK-MEL-5 melanoma,> 100 µM
same,TGI,SNB-19 CNS,> 100 µM
same,TGI,RXF 393 renal,> 100 µM
COC(=O)C1=C(C(=O)OC)C2OC1C1C2C2(C)C(C)=C(C)C1(C)S2=O (stereo not given),TGI,SK-MEL-28 melanoma,33.8 µM
same,TGI,SW-620 colon,12.6 µM
same,TGI,SF-539 CNS,> 100 µM
same,TGI,NCI-H460 lung,36.3 µM
same,TGI,A498 renal,68.4 µM
same,TGI,IGROV1 ovarian,39.3 µM
same,TGI,SK-MEL-5 melanoma,19.2 µM
same,TGI,BT-549 breast,25.1 µM
same,TGI,SNB-19 CNS,66.1 µM
same,TGI,RXF 393 renal,10.6 µM
CC(=O)OCC1OC(N2C(=O)/C(=C\c3ccc(Cl)cc3)C(N)=Nc3ccccc32)C(OC(C)=O)C(OC(C)=O)C1OC(C)=O (stereo not given),TGI,SK-MEL-28 melanoma,71.2 µM
same,TGI,SW-620 colon,> 100 µM
same,TGI,SF-539 CNS,40.8 µM
same,TGI,NCI-H460 lung,> 100 µM
same,TGI,A498 renal,> 100 µM
same,TGI,IGROV1 ovarian,63.4 µM
same,TGI,SK-MEL-5 melanoma,27.1 µM
same,TGI,BT-549 breast,> 100 µM
same,TGI,SNB-19 CNS,> 100 µM
same,TGI,RXF 393 renal,27.9 µM
O=c1[nH]c2nc3ccccc3c(=O)n2/c1=C/c1ccc(O)cc1,TGI,CCRF-CEM leukemia,> 100 µM
same,TGI,SK-MEL-28 melanoma,> 100 µM
same,TGI,SW-620 colon,56.4 µM
same,TGI,SF-539 CNS,46.6 µM
same,TGI,IGROV1 ovarian,> 100 µM
same,TGI,SK-MEL-5 melanoma,> 100 µM
same,TGI,BT-549 breast,> 100 µM
same,TGI,SNB-19 CNS,51.3 µM
same,TGI,RXF 393 renal,> 100 µM
COc1cc2c(cc1OCCCCCOc1cc3c(cc1OC)C(=O)N1CCC[C@H]1C(=O)N3)N=C[C@@H]1CCCN1C2=O,TGI,SK-MEL-28 melanoma,0.332 µM
same,TGI,SF-539 CNS,0.0562 µM
same,TGI,A498 renal,1.1 µM
same,TGI,BT-549 breast,6.67 µM
same,TGI,SNB-19 CNS,> 100 µM
same,TGI,RXF 393 renal,0.413 µM
C=CCN(CC=C)Cn1c(=S)sc2ccccc21,TGI,CCRF-CEM leukemia,47.5 µM
same,TGI,SK-MEL-28 melanoma,> 100 µM
same,TGI,SW-620 colon,> 100 µM
same,TGI,SF-539 CNS,> 100 µM
same,TGI,NCI-H460 lung,> 100 µM
same,TGI,IGROV1 ovarian,> 100 µM
same,TGI,SK-MEL-5 melanoma,> 100 µM
same,TGI,BT-549 breast,> 100 µM
same,TGI,SNB-19 CNS,> 100 µM
same,TGI,RXF 393 renal,> 100 µM
CC(=O)NC1C(OCc2ccccc2)OC(CO)C(O)C1OCC(=O)N[C@@H](C)C(=O)N[C@H](CCC(=O)NCCNCCNc1c2ccccc2nc2cccc([N+](=O)[O-])c12)C(N)=O (stereo not given in full),TGI,CCRF-CEM leukemia,> 100 µM
same,TGI,SK-MEL-28 melanoma,> 100 µM
same,TGI,SW-620 colon,> 100 µM
same,TGI,SF-539 CNS,> 100 µM
same,TGI,NCI-H460 lung,36.5 µM
same,TGI,A498 renal,48.1 µM
same,TGI,IGROV1 ovarian,32.7 µM
same,TGI,SK-MEL-5 melanoma,39.5 µM
same,TGI,SNB-19 CNS,> 100 µM
same,TGI,RXF 393 renal,64 µM
O=C1O[C@@H](c2ccccc2)C[C@@H]1CN1CCOCC1,TGI,CCRF-CEM leukemia,> 100 µM
same,TGI,SK-MEL-28 melanoma,> 100 µM
same,TGI,SW-620 colon,> 100 µM
same,TGI,SF-539 CNS,> 100 µM
same,TGI,NCI-H460 lung,> 100 µM
same,TGI,A498 renal,> 100 µM
same,TGI,IGROV1 ovarian,> 100 µM
same,TGI,SK-MEL-5 melanoma,> 100 µM
same,TGI,RXF 393 renal,> 100 µM
CCOC(=O)C(OCC1CC=CCC1)Sc1ccccc1 (stereo not given),TGI,CCRF-CEM leukemia,> 100 µM
same,TGI,SK-MEL-28 melanoma,> 100 µM
same,TGI,SW-620 colon,> 100 µM
same,TGI,SF-539 CNS,> 100 µM
same,TGI,NCI-H460 lung,> 100 µM
same,TGI,A498 renal,> 100 µM
same,TGI,IGROV1 ovarian,> 100 µM
same,TGI,SK-MEL-5 melanoma,> 100 µM
same,TGI,SNB-19 CNS,> 100 µM
C=CC1=CSNN1,TGI,CCRF-CEM leukemia,> 100 µM
same,TGI,SK-MEL-28 melanoma,> 100 µM
same,TGI,SW-620 colon,> 100 µM
same,TGI,SF-539 CNS,> 100 µM
same,TGI,NCI-H460 lung,> 100 µM
same,TGI,A498 renal,> 100 µM
same,TGI,IGROV1 ovarian,> 100 µM
same,TGI,SK-MEL-5 melanoma,> 100 µM
same,TGI,SNB-19 CNS,> 100 µM
same,TGI,RXF 393 renal,> 100 µM
Cc1c(Cl)ccc2c(=O)c3cccc(CC(=O)O)c3oc12,TGI,CCRF-CEM leukemia,> 100 µM
same,TGI,SK-MEL-28 melanoma,> 100 µM
same,TGI,SW-620 colon,> 100 µM
same,TGI,SF-539 CNS,> 100 µM
same,TGI,NCI-H460 lung,> 100 µM
same,TGI,A498 renal,> 100 µM
same,TGI,IGROV1 ovarian,> 100 µM
same,TGI,SK-MEL-5 melanoma,> 100 µM
same,TGI,BT-549 breast,> 100 µM
same,TGI,SNB-19 CNS,> 100 µM
O=c1c2ccccc2[nH]c(=S)n1-c1ccc(N=Nc2cccc3c(O)cccc23)cc1,TGI,CCRF-CEM leukemia,> 100 µM
same,TGI,SK-MEL-28 melanoma,> 100 µM
same,TGI,SW-620 colon,> 100 µM
same,TGI,SF-539 CNS,> 100 µM
same,TGI,NCI-H460 lung,> 100 µM
same,TGI,IGROV1 ovarian,> 100 µM
same,TGI,SK-MEL-5 melanoma,> 100 µM
same,TGI,BT-549 breast,> 100 µM
same,TGI,SNB-19 CNS,> 100 µM
same,TGI,RXF 393 renal,> 100 µM
O=C(Cc1nc2ccc(C(=O)c3ccccc3)cc2[nH]c1=O)C(=O)Nc1ccc(Br)cc1,TGI,SK-MEL-28 melanoma,> 100 µM
same,TGI,SW-620 colon,> 100 µM
same,TGI,SF-539 CNS,> 100 µM
same,TGI,NCI-H460 lung,> 100 µM
same,TGI,A498 renal,> 100 µM
same,TGI,IGROV1 ovarian,> 100 µM
same,TGI,SK-MEL-5 melanoma,> 100 µM
same,TGI,BT-549 breast,> 100 µM
same,TGI,RXF 393 renal,> 100 µM
O=C1CCCN(c2ccccc2)N1,TGI,SK-MEL-28 melanoma,> 100 µM
same,TGI,SW-620 colon,> 100 µM
same,TGI,SF-539 CNS,> 100 µM
same,TGI,NCI-H460 lung,> 100 µM
same,TGI,A498 renal,> 100 µM
same,TGI,IGROV1 ovarian,> 100 µM
same,TGI,SK-MEL-5 melanoma,> 100 µM
same,TGI,SNB-19 CNS,> 100 µM
same,TGI,RXF 393 renal,> 100 µM
CCN(CC)CCn1c2cc3c(cc2c(=O)c2cccnc21)OCCO3,TGI,CCRF-CEM leukemia,> 10 µM
same,TGI,SK-MEL-28 melanoma,> 10 µM
same,TGI,SW-620 colon,> 10 µM
same,TGI,SF-539 CNS,> 10 µM
same,TGI,IGROV1 ovarian,> 10 µM
same,TGI,SK-MEL-5 melanoma,> 10 µM
same,TGI,BT-549 breast,> 10 µM
same,TGI,SNB-19 CNS,> 10 µM
same,TGI,RXF 393 renal,> 10 µM
COc1ccc(C2C(Cl)C(=O)N2NC(=O)c2ccc(NC(C)=O)cc2)cc1 (stereo not given),TGI,CCRF-CEM leukemia,> 100 µM
same,TGI,SK-MEL-28 melanoma,> 100 µM
same,TGI,SW-620 colon,> 100 µM
same,TGI,SF-539 CNS,> 100 µM
same,TGI,NCI-H460 lung,> 100 µM
same,TGI,A498 renal,> 100 µM
same,TGI,IGROV1 ovarian,> 100 µM
same,TGI,SK-MEL-5 melanoma,> 100 µM
same,TGI,SNB-19 CNS,> 100 µM
same,TGI,RXF 393 renal,> 100 µM
c1cc2nnc1SCCSCCSc1ccc(nn1)SCCSCCS2,TGI,CCRF-CEM leukemia,> 100 µM
same,TGI,SK-MEL-28 melanoma,> 100 µM
same,TGI,SW-620 colon,> 100 µM
same,TGI,SF-539 CNS,96.8 µM
same,TGI,NCI-H460 lung,> 100 µM
same,TGI,A498 renal,> 100 µM
same,TGI,IGROV1 ovarian,> 100 µM
same,TGI,SK-MEL-5 melanoma,> 100 µM
same,TGI,SNB-19 CNS,> 100 µM
same,TGI,RXF 393 renal,> 100 µM
N#CCCN(c1ccc(C=Nc2cccc([N+](=O)[O-])c2)cc1)S(=O)(=O)c1ccccc1,TGI,CCRF-CEM leukemia,> 100 µM
same,TGI,SK-MEL-28 melanoma,> 100 µM
same,TGI,SW-620 colon,> 100 µM
same,TGI,SF-539 CNS,> 100 µM
same,TGI,IGROV1 ovarian,> 100 µM
same,TGI,SNB-19 CNS,> 100 µM
CO[C@@H](C(=O)OC1C=CC2(CC1)C(=O)N(C)c1ccccc12)c1ccccc1 (stereo not given in full),TGI,CCRF-CEM leukemia,> 100 µM
same,TGI,SK-MEL-28 melanoma,> 100 µM
same,TGI,SW-620 colon,> 100 µM
same,TGI,NCI-H460 lung,> 100 µM
same,TGI,A498 renal,> 100 µM
same,TGI,IGROV1 ovarian,> 100 µM
same,TGI,SK-MEL-5 melanoma,> 100 µM
same,TGI,SNB-19 CNS,> 100 µM
Cc1ccccc1C(C#N)C(=O)C(=O)Nc1nc([N+](=O)[O-])cs1 (stereo not given),TGI,SK-MEL-28 melanoma,> 100 µM
same,TGI,SW-620 colon,> 100 µM
same,TGI,SF-539 CNS,> 100 µM
same,TGI,NCI-H460 lung,> 100 µM
same,TGI,A498 renal,> 100 µM
same,TGI,IGROV1 ovarian,> 100 µM
same,TGI,SK-MEL-5 melanoma,> 100 µM
same,TGI,SNB-19 CNS,> 100 µM
same,TGI,RXF 393 renal,> 100 µM
Cc1ccccc1C1OC1C(=O)c1ccccc1N (stereo not given),TGI,CCRF-CEM leukemia,> 100 µM
same,TGI,SK-MEL-28 melanoma,> 100 µM
same,TGI,SW-620 colon,> 100 µM
same,TGI,SF-539 CNS,> 100 µM
same,TGI,NCI-H460 lung,> 100 µM
same,TGI,A498 renal,> 100 µM
same,TGI,SK-MEL-5 melanoma,> 100 µM
same,TGI,SNB-19 CNS,> 100 µM
same,TGI,RXF 393 renal,> 100 µM
CCOc1ccc(NC(=O)CC2Sc3ccccc3NC2=O)cc1 (stereo not given),TGI,CCRF-CEM leukemia,> 100 µM
same,TGI,SK-MEL-28 melanoma,> 100 µM
same,TGI,SW-620 colon,33.5 µM
same,TGI,SF-539 CNS,> 100 µM
same,TGI,NCI-H460 lung,> 100 µM
same,TGI,A498 renal,> 100 µM
same,TGI,IGROV1 ovarian,> 100 µM
same,TGI,SK-MEL-5 melanoma,> 100 µM
same,TGI,SNB-19 CNS,> 100 µM
